Laboratory results reported in patent US20230277534A1 (Plexxikon Inc., priority 2011, published 2023).

Legend:
B-Raf V600E = B-Raf V600E (Homo sapiens (Human), UniProt P15056, V600E); test: B-Raf V600E kinase biochemical activity assay (AlphaScreen, biotin-MEK1 substrate); settings: 100 μM ATP
Outline: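 B-Raf V600E (0.1 ng) phosphorylated 100 nM biotin-MEK1 with 100 μM ATP (final) in HEPES pH 7.0 with Mg2+/Mn2+ for 45 min at room temperature. Compounds were tested over an 8-point serial dilution. Phospho-MEK1/2 was detected by AlphaScreen after 3 h with beads, and IC50 came from signal versus concentration.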

[1] = system: COLO205 colon adenocarcinoma cells (B-Raf V600E mutation); test: COLO205 cell growth inhibition (ATPlite); type: cell-based; settings: Homo sapiens, COLO 205, 72 h, 3 days
Outline: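 Cells treated for 3 days at 37 °C, 5% CO2 with an 8-point 1:3 dilution series, top final concentration 10 μM, DMSO control. ATPlite luminescence used as a measure of cell number; IC50 from reading versus concentration.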

Chain of B-Raf V600E (P15056 whole entry V600E): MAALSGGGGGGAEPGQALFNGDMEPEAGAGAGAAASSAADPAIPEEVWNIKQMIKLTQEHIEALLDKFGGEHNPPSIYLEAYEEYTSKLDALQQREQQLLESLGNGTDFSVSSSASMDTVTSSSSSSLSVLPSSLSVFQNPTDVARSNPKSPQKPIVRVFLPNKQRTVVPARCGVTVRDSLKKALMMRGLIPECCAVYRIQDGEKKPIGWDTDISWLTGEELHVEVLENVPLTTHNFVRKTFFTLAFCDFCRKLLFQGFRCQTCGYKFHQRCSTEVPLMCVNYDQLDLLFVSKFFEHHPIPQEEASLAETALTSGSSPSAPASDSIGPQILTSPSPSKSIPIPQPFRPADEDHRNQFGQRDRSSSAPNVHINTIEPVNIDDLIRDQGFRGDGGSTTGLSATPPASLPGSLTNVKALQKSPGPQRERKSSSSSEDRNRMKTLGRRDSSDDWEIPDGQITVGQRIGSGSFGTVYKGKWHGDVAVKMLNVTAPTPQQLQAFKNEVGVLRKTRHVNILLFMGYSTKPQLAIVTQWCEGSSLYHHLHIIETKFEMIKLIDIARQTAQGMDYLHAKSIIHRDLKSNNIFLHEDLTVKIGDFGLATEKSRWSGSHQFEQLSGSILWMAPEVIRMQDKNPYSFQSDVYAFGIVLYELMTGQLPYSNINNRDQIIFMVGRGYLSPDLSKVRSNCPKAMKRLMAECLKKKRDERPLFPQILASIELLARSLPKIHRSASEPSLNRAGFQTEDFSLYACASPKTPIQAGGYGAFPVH

| SMILES | IC50 (B-Raf V600E) | IC50 [1] |
| --- | --- | --- |
| O=C(c1cccc(NS(=O)(=O)N2CCCC2)c1F)c1c[nH]c2ncc(-c3ccncc3)cc12 [Compound P-0281, N-[2-fluoro-3-[5-(4-pyridyl)-1H-pyrrolo[2,3-b]pyridine-3-carbonyl]phenyl]pyrrolidine-1-sulfonamide] | < 0.1 µM | < 1 µM |
| CCN(C)S(=O)(=O)Nc1ccc(F)c(C(=O)c2c[nH]c3ncc(-c4ccnc(F)c4)cc23)c1F [Compound P-0283, 3-[3-[[ethyl(methyl)sulfamoyl]amino]-2,6-difluoro-benzoyl]-5-(2-fluoro-4-pyridyl)-1H-pyrrolo[2,3-b]pyridine] | < 0.1 µM | < 1 µM |
| CN1CCN(c2cc(-c3cnc4[nH]cc(C(=O)c5c(F)ccc(NS(=O)(=O)N6CCCC6)c5F)c4c3)ccn2)CC1 [Compound P-0285, N-[2,4-difluoro-3-[5-[2-(4-methylpiperazin-1-yl)-4-pyridyl]-1H-pyrrolo[2,3-b]pyridine-3-carbonyl]phenyl]pyrrolidine-1-sulfonamide] | < 0.1 µM | < 1 µM |
| O=C(c1c(F)ccc(NS(=O)(=O)N2CC[C@H](F)C2)c1F)c1c[nH]c2ncc(-c3cnc(C4CC4)nc3)cc12 [Compound P-0289, (3S)—N-[3-[5-(2-cyclopropylpyrimidin-5-yl)-1H-pyrrolo[2,3-b]pyridine-3-carbonyl]-2,4-difluoro-phenyl]-3-fluoro-pyrrolidine-1-sulfonamide] | < 0.1 µM | < 1 µM |
| CCN(C)S(=O)(=O)Nc1cccc(C(=O)c2c[nH]c3ncc(C4CCC4)cc23)c1F [Compound P-0297, 5-cyclobutyl-3-[3-[[ethyl(methyl)sulfamoyl]amino]-2-fluoro-benzoyl]-1H-pyrrolo[2,3-b]pyridine] | < 0.1 µM | > 1 µM |
| CCN(C)S(=O)(=O)Nc1cccc(C(=O)c2c[nH]c3ncc(C4CC4)cc23)c1F [Compound P-0298, 5-cyclopropyl-3-[3-[[ethyl(methyl)sulfamoyl]amino]-2-fluoro-benzoyl]-1H-pyrrolo[2,3-b]pyridine] | < 0.1 µM | > 1 µM |
| Nc1cc(-c2cnc3[nH]cc(C(=O)c4cccc(NS(=O)(=O)N5CCCC5)c4F)c3c2)ncn1 [Compound P-0299, N-[3-[5-(6-aminopyrimidin-4-yl)-1H-pyrrolo[2,3-b]pyridine-3-carbonyl]-2-fluoro-phenyl]pyrrolidine-1-sulfonamide] | < 0.1 µM | > 1 µM |
| CCN(C)S(=O)(=O)Nc1ccc(F)c(C(=O)c2c[nH]c3ncc(-c4ccc(C(F)(F)F)cc4)cc23)c1F [Compound P-0301, 3-[3-[[ethyl(methyl)sulfamoyl]amino]-2,6-difluoro-benzoyl]-5-[4-(trifluoromethyl)phenyl]-1H-pyrrolo[2,3-b]pyridine] | < 0.1 µM | > 1 µM |
| CCN(C)S(=O)(=O)Nc1ccc(F)c(C(=O)c2c[nH]c3ncc(-c4ccc(-c5nnc(C)o5)cc4)cc23)c1F [Compound P-0304, 2-[4-[3-[3-[[ethyl(methyl)sulfamoyl]amino]-2,6-difluoro-benzoyl]-1H-pyrrolo[2,3-b]pyridin-5-yl]phenyl]-5-methyl-1,3,4-oxadiazole] | < 0.1 µM | < 1 µM |
| CCN(C)S(=O)(=O)Nc1ccc(F)c(C(=O)c2c[nH]c3ncc(-c4ccc(C(C)(C)O)nc4)cc23)c1F [Compound P-0307, 3-[3-[[ethyl(methyl)sulfamoyl]amino]-2,6-difluoro-benzoyl]-5-[6-(1-hydroxy-1-methyl-ethyl)-3-pyridyl]-1H-pyrrolo[2,3-b]pyridine] | < 0.1 µM | < 1 µM |
| CCN(C)S(=O)(=O)Nc1ccc(F)c(C(=O)c2c[nH]c3ncc(-c4ccc5c(c4)NC(=O)C5)cc23)c1F [Compound P-0309, 3-[3-[[ethyl(methyl)sulfamoyl]amino]-2,6-difluoro-benzoyl]-5-(2-oxoindolin-6-yl)-1H-pyrrolo[2,3-b]pyridine] | < 0.1 µM | < 1 µM |
| CCN(C)S(=O)(=O)Nc1ccc(F)c(C(=O)c2c[nH]c3ncc(-c4ccc(-c5noc(C)n5)s4)cc23)c1F [Compound P-0310, 3-[5-[3-[3-[[ethyl(methyl)sulfamoyl]amino]-2,6-difluoro-benzoyl]-1H-pyrrolo[2,3-b]pyridin-5-yl]-2-thienyl]-5-methyl-1,2,4-oxadiazole] | < 0.1 µM | < 1 µM |
| CCN(C)S(=O)(=O)Nc1ccc(F)c(C(=O)c2c[nH]c3ncc(-c4ccc5nc(N)ncc5c4)cc23)c1F [Compound P-0311, 2-amino-6-[3-[3-[[ethyl(methyl)sulfamoyl]amino]-2,6-difluoro-benzoyl]-1H-pyrrolo[2,3-b]pyridin-5-yl]quinazoline] | < 0.1 µM | < 1 µM |

The remaining lines, values ahead:

| IC50 (B-Raf V600E) | IC50 [1] | SMILES |
| --- | --- | --- |
| < 0.1 µM | < 1 µM | Nc1ncc(-c2cnc3[nH]cc(C(=O)c4c(F)ccc(NS(=O)(=O)N5CCCC5)c4F)c3c2)cn1 [Compound P-0279, N-[3-[5-(2-aminopyrimidin-5-yl)-1H-pyrrolo[2,3-b]pyridine-3-carbonyl]-2,4-difluoro-phenyl]pyrrolidine-1-sulfonamide] |
| < 0.1 µM | < 1 µM | O=C(c1c(F)ccc(NS(=O)(=O)N2CCCC2)c1F)c1c[nH]c2ncc(-c3ccnc(N4CCOCC4)n3)cc12 [Compound P-0282, N-[2,4-difluoro-3-[5-(2-morpholinopyrimidin-4-yl)-1H-pyrrolo[2,3-b]pyridine-3-carbonyl]phenyl]pyrrolidine-1-sulfonamide] |
| < 0.1 µM | < 1 µM | CCN(C)S(=O)(=O)Nc1ccc(F)c(C(=O)c2c[nH]c3ncc(-c4cnc(N5CCCC5)nc4)cc23)c1F [Compound P-0293, 3-[3-[[ethyl(methyl)sulfamoyl]amino]-2,6-difluoro-benzoyl]-5-(2-pyrrolidin-1-ylpyrimidin-5-yl)-1H-pyrrolo[2,3-b]pyridine] |
| < 0.1 µM | > 1 µM | CCN(C)S(=O)(=O)Nc1ccc(F)c(C(=O)c2c[nH]c3ncc(-c4ccc(N5CCCC5)cc4)cc23)c1F [Compound P-0303, 3-[3-[[ethyl(methyl)sulfamoyl]amino]-2,6-difluoro-benzoyl]-5-(4-pyrrolidin-1-ylphenyl)-1H-pyrrolo[2,3-b]pyridine] |
| < 0.1 µM | < 1 µM | CCN(C)S(=O)(=O)Nc1ccc(F)c(C(=O)c2c[nH]c3ncc(-c4ccc(-c5nnc(NC)s5)cc4)cc23)c1F [Compound P-0305, 2-[4-[3-[3-[[ethyl(methyl)sulfamoyl]amino]-2,6-difluoro-benzoyl]-1H-pyrrolo[2,3-b]pyridin-5-yl]phenyl]-5-(methylamino)-1,3,4-thiadiazole] |
| < 0.1 µM | < 1 µM | CCN(C)S(=O)(=O)Nc1ccc(F)c(C(=O)c2c[nH]c3ncc(-c4cncc(C(C)(C)O)c4)cc23)c1F [Compound P-0306, 3-[3-[[ethyl(methyl)sulfamoyl]amino]-2,6-difluoro-benzoyl]-5-[5-(1-hydroxy-1-methyl-ethyl)-3-pyridyl]-1H-pyrrolo[2,3-b]pyridine] |
| < 0.1 µM | < 1 µM | CCN(CC)c1ccc(-c2cnc3[nH]cc(C(=O)c4c(F)ccc(NS(=O)(=O)N(C)CC)c4F)c3c2)cc1 [Compound P-0308, 5-[4-(diethylamino)phenyl]-3-[3-[[ethyl(methyl)sulfamoyl]amino]-2,6-difluoro-benzoyl]-1H-pyrrolo[2,3-b]pyridine] |
